Laboratory results reported in patent US20240052305A1, “CHEMICAL INDUCTION METHOD FOR PHOTORECEPTOR NEURON CELLS” (IREGENE THERAPEUTICS LTD, priority 2020, published 2024).
“Also recorded” adds a separate entry of the source.

Key:
ectoderm cells [1] = experiment: Differentiation of ectoderm cells into photoreceptor neuron cells with AM580 (morphology, Q-PCR, immunofluorescence); type: cell-based, human
Experimental: The ectoderm cells obtained by the NouvNeu system in Example 2 were subjected to directed differentiation in NouvNeu medium. For differentiation, a 6-well culture plate was coated by 50 ug/ml poly-lysine (SIGMA, P6407), incubated in an incubator at 37° C. for more than 3 hours until cells were seeded.
The photoreceptor neuron cell induction medium of the present invention was obtained by supplementing the NouvNeu-basal base medium with 55 nM-25 uM LY2157299 (with an optimal concentration of 7.5 uM) (preferably 100 nM, 300 nM, 500 nM, 700 nM, 900 nM, 1 uM, 2.5 uM, 5 uM, 7.5 uM, 10 uM, 12.5 uM, 15 uM, 17.5 uM, 20 uM or 22 uM) and 0.05-0.95 uM AM580 (Selleck) (with an optimal concentration of 0.5 uM) (preferably 0.08 uM, 0.09 uM, 0.1 uM, 0.2 uM, 0.3 uM, 0.5 uM, 0.6 uM, 0.7 uM, 0.8 uM, 0.9 uM). The cells were cultured until photoreceptor neuron cell were formed. A control experiment was performed by adding 0.5 uM retinoic acid to the NouvNeu medium, hereinafter referred to as RA.
The screening test of AM580 concentration was carried out with reference to Example 2.3, and the expression difference of photoreceptor neuron cells obtained by using different concentrations of AM580 in the AM580 induction method and the LSB induction method was compared. See Table 2 and Table 4 for the details of primers used. […] In combination with the effect of AM580 on the expression of photoreceptor neuron-specific genes shown in FIG. 4, it could be concluded that the concentrations of AM580 used in the present invention are within the range of optimal concentration.
The medium was replaced with fresh medium every 3 days until day 21. The conditions for culture were at 37° C., 5% CO2 (Panasonic, MCO-18AC). After the induction was completed, the samples in experimental group and control group were respectively identified by immunofluorescence staining as follows: cells were fixed with 4% paraformaldehyde at room temperature for 40 minutes, washed twice with DPBS buffer; then permeabilized with 0.1% Triton X-100 for 5 minutes, washed twice with DPBS buffer; then incubated overnight at 4° C. with DPBS buffer containing 10% horse serum and 0.1% Triton X-100; added with a primary antibody diluted in DPBS buffer containing 2% horse serum and 0.1% Triton X-100, incubated at 37° C. for two hours, and washed three times with DPBS buffer, added with a secondary antibody diluted in DPBS buffer containing 2% horse serum and 0.1% Triton X-100, and then photographed.
Transcription changes of different marker genes during induction from ectoderm cells to photoreceptor neuron cells were detected by Q-PCR. The photoreceptor cells obtained by using the present invention and different concentrations of AM580, and the photoreceptor cells obtained by the RA control induction method were respectively extracted with RNeasy Mini or Micro Kit (QIAGEN) for total RNA, and cDNA was synthesized by […] RNA via SuperScript III First-Strand Synthesis System (Invitrogen). SYBR Premix Ex Taq (TaKaRa) and Thermal Cycler Dice Real Time System (TaKaRa) were used for labeling and reaction of Quantitative PCR, and beta-Actin was used as internal control. All data were analyzed by delta-Ct method. Three replicates were used for each group of experiments, and ANOVA was performed.

ectoderm cells [2] = experiment: Differentiation of the ectoderm cells into neural stem cells (neural rosettes, immunofluorescence, Q-PCR); type: cell-based, human
Experimental: Ectoderm cells could be further cultured to form neural stem cells. In order to identify this ability of ectoderm cells, the ectoderm cells obtained in Example 2.1 were further cultured in vitro by using a NouvNeu-basal base medium supplemented with 7.5 uM LY2157299 and 0.5-20 uM JW55 (with an optimal concentration of 5 uM) until a neural rosette-like structure was formed. The LSB induction method was used as a control. […]
Transcription changes of different marker genes during induction from ectoderm cells to neural stem cells were detected by Q-PCR. […] SYBR Premix Ex Taq (TaKaRa) and Thermal Cycler Dice Real Time System (TaKaRa) were used for labeling and reaction by Quantitative PCR, and beta-Actin was used as internal control. All data were analyzed by delta-Ct method. […]

[3] = tested on: human pluripotent stem cells; experiment: Chemical induction of ectoderm cells from pluripotent stem cells with different concentrations of LY2157299 (morphology, Q-PCR); type: cell-based
Experimental: The ectoderm cell induction medium of the present invention was obtained by supplementing the NouvNeu-basal base medium with 55 nM-25 uM LY2157299 (Selleck) (with an optimal concentration of 7.5 uM) (preferably 100 nM, 300 nM, 500 nM, 700 nM, 900 nM, 1 uM, 2.5 uM, 5 uM, 7.5 uM, 10 uM, 12.5 uM, 15 uM, 17.5 uM, 20 uM or 22 uM). An induction method using said ectoderm cell induction medium was hereinafter referred to as a LY induction method.
Ectoderm cells were derived from human pluripotent stem cells, including embryogenic pluripotent stem cells, such as H9 cell line and human induced pluripotent stem cells. Human induced pluripotent stem cells were obtained by reprogramming from CD34+ cells according to “Reprogrammed culture medium and culture method of reprogrammed induced multipotential stem cell” (ZL 201910050800.7). In the present invention, “induced pluripotent stem cells” and “pluripotent stem cells” were used interchangeably.
During the induction of ectoderm cells, a 6-well culture plate was coated by using 50 ug/ml polylysine (SIGMA, P6407), and incubated in an incubator at 37° C. for more than 3 hours; then further coated by 5 ug/ml laminin (Laminin, I2020, SIGMA ALDRICH), and incubated in an incubator at 37° C. for more than 3 hours after plating. After the pluripotent stem cells reached 70% coverage, they were digested with EDTA at 37° C. for 5 min, and the cell digestion was terminated with DMEM. After washing and centrifugation, the cells were re-plated in the T25 culture plate at 2×10^5 cells per flask. The neural stem cell induction medium of the present invention was used for induction, and replaced with fresh induction medium every day until lamellar ectoderm cells were formed.
The effect of different concentrations of LY2157299 on the formation of ectoderm cells was detected by Q-PCR. The ectoderm cells obtained from the induced pluripotent stem cells in Example 2 by using different concentrations of LY2157299 in the LY induction method and LSB induction method were respectively extracted with RNeasy Mini or Micro Kit (QIAGEN) for total RNA, and cDNA was synthesized by […] RNA via SuperScript III First-Strand Synthesis System (Invitrogen). SYBR Premix Ex Taq (TaKaRa) and Thermal Cycler Dice Real Time System (TaKaRa) were used for labeling and reaction by Quantitative PCR, and beta-Actin was used as internal control. All data were analyzed by delta-Ct method. Triplicates were used for each group of experiments, and ANOVA was performed.

photoreceptor cells = experiment: Cyquant cell viability assay during induction of photoreceptor cells; type: cell-based, human; conditions: Cyquant test, FIGS. 6e-6g
Description: The Cyquant test was also used to detect the effect of progesterone, putrescine and Optiferrin on cell viability, so as to study the effects of different concentrations of progesterone, putrescine and Optiferrin on the physiological state of cells during the induction of photoreceptor cells.

[4] = Osmotic pressure of the culture system by freezing point osmometer; type: physicochemical; set-up: osmotic pressure of the culture system: dose or concentration left out as unconfirmed
Experimental: A screening culture system was prepared by using different concentration gradients of sodium chloride while maintaining the optimal concentration of other components. The effect of different concentrations of sodium chloride on the osmotic pressure of culture system was detected by using an automatic freezing point osmometer (FM-8P, Shanghai Medical University Instrument Co., Ltd.), and specific operations were performed according to the product manual (FM-8P, Shanghai Medical University Instrument Co., Ltd.).

[5] = tested on: human pluripotent stem cells; experiment: Cyquant cell viability assay during ectoderm induction, long-term culture; type: cell-based; conditions: for number of cells induced versus concentration: Cyquant test, FIGS. 6c-6d
Experimental: A screening culture system was prepared by using different concentration gradients of insulin or vitamin C while maintaining the optimal concentration of other components. Ectoderm induction was performed according to the method in Example 2.1. The cell viability was quantitatively detected by Cyquant assay to study the effects of insulin or vitamin C on the physiological state of cells during long-term cell culture. A 96-well opaque cell culture plate was coated, and then the cells are inoculated at 5×10^4 cells per well, wherein parallel triplicates were set up (the average of the three groups was calculated as the data). The steps in Example 2.1 were repeated with the culture conditions of 37° C., 5% CO2. Samples were taken at day 1, day 5, day 10 and day 20, respectively, and the cell viability detection was carried out by CyQuant Kit (Invitrogen, X12223) according to the instruction manual, and data were read by SpectraMax i3 Multi-Mode Microplate Reader (VWR, ID3-STD). […] Therefore, in combination with cost factors, the insulin or vitamin C in the basal medium of the present invention was the optimal concentration.

[6] = tested on: photoreceptor neuron cells; experiment: Screening test of vitamin B12 concentration (Q-PCR of photoreceptor neuron cells); type: cell-based, human
Experimental: The screening test of vitamin B12 concentration was carried out with reference to Example 2.3, and the expression difference of photoreceptor neuron cells obtained by using different concentrations of vitamin B12 was compared. See Table 2 and Table 4 for the details of primers used. […] Therefore, the concentration of vitamin B12 used in the present invention was the optimal concentration.

CC1(C)CCC(C)(C)c2cc(C(=O)Nc3ccc(C(=O)O)cc3)ccc21 [AM580]
marker PAX6 versus concentration (ectoderm cells [1]; Q-PCR, FIG. 3f): positively correlated | apoptotic markers versus concentration (ectoderm cells [1]; Q-PCR, FIG. 3g): positively correlated | expression of photoreceptor cell-specific marker genes (ectoderm cells [1]; Q-PCR, compared with RA control, FIG. 4): could induce the expression of multiple photoreceptor cell-specific marker genes, which was not significantly lower than that of the RA control | morphology of differentiated cells (ectoderm cells [1]; appropriate concentration, FIG. 3d): uniformly differentiated photoreceptor cells with short axons | apoptosis (ectoderm cells [1]; concentration too high): lead to apoptosis | morphology of differentiated cells (ectoderm cells [1]; excessively high concentration, FIG. 3e): results in stress in differentiated cells | protein expression of photoreceptor markers (ectoderm cells [1]; fluorescent immunoassay, FIG. 5): same protein expression patterns with that in the RA control group | optimal concentration of AM580 (ectoderm cells [1]; induction of photoreceptor cells, screening of different concentrations (FIG. 3)): 0.5 µM | morphology of differentiated cells (ectoderm cells [1]; low concentration, FIG. 3c): differentiation into mixed cells including cortical neurons

Cc1cccc(-c2nn3c(c2-c2ccnc4ccc(C(N)=O)cc24)CCC3)n1 [LY2157299, 4-(2-(6-methylpyridin-2-yl)-5,6-dihydro-4H-pyrrolo[1,2-b]pyrazol-3-yl) quinoline-6-carboxamide]
expression of neural stem cell markers compared with the control method (ectoderm cells [2]; Q-PCR, FIGS. 1e-1f): slightly increase the expression of neural stem cell markers | neural stem cell markers after formation of neural rosettes (ectoderm cells [2]; immunofluorescence staining, FIGS. 1a-1d): can express neural stem cell markers Pax6 and Nestin | ectoderm markers versus concentration ([3]; Q-PCR, FIG. 2f): positively correlated | apoptotic markers versus concentration ([3]; Q-PCR, FIG. 2g): positively correlated | formation of ectoderm cells (morphology) ([3]; appropriate concentration, FIG. 2d): uniformly differentiated ectoderm cells | formation of ectoderm cells (morphology) ([3]; excessively high concentration, FIG. 2e): promote the differentiation of ectoderm cells into neural cells | cell apoptosis ([3]; high concentration): induced cell apoptosis | optimal concentration of LY2157299 ([3]; induction of ectoderm cells, screening of different concentrations (FIG. 2)): 7.5 µM | formation of ectoderm cells (morphology) ([3]; low concentration, FIG. 2c): differentiation into mixed cell including ectodermal cells; also recorded: the ectoderm could not be completely formed

CC(=O)[C@H]1CC[C@H]2[C@@H]3CCC4=CC(=O)CC[C@]4(C)[C@H]3CC[C@]12C [progesterone]
cell proliferation rate versus concentration (photoreceptor cells): positively correlated

NCCCCN [putrescine]
cell proliferation rate versus concentration (photoreceptor cells): positively correlated

[Cl-].[Na+] [sodium chloride]
osmotic pressure of the culture system versus concentration ([4]; concentration gradients, FIG. 6a): increased linearly | osmotic pressure of the culture system ([4]; sodium chloride concentration): > 320 mOsm/kg

O=C1O[C@H]([C@@H](O)CO)C(O)=C1O [vitamin C, L-ascorbic acid]
number of cells induced versus concentration [5]: positively correlated | number of cells compared with the optimal concentration ([5]; high concentration): not significantly different | state of cells in the late stage of induction ([5]; high concentration): caused the cells to shed in pieces

Optiferrin: component of the NouvNeu-basal base medium (SIGMA)
cell proliferation rate versus concentration (photoreceptor cells): positively correlated

insulin: component of the NouvNeu-basal base medium
number of cells induced versus concentration [5]: positively correlated | number of cells compared with the optimal concentration ([5]; high concentration): not significantly different

vitamin B12
photoreceptor non-specific marker PAX6 versus concentration ([6]; Q-PCR, FIG. 6b): positively correlated | relative expression of PAX6 ([6]; concentration too high): decrease in the relative expression of PAX6
